Measured values taken from the kinase profiling compilation of Christmann-Franck et al. (2016).

Biological target: MAP4K5 (human) (UniProt Q9Y4K4)
Experiment: KINOMEscan competition binding
Conditions: compound 10.0 µM

Compound	kinase still bound, per cent of control [%]
CCN1CCN(Cc2ccc(NC(=O)c3ccc(C)c(/C=C/c4cnc(Nc5cc(N6CCNCC6)nc(C)n5)cn4)c3)cc2C(F)(F)F)CC1	0.55
COc1cc(N2CCC(N3CCN(C)CC3)CC2)ccc1Nc1ncc(Cl)c(Nc2ccccc2S(=O)(=O)C(C)C)n1	0.3
CCOc1cc(N2CCC(N3CCCCC3)CC2)ccc1Nc1nc(Nc2ccccc2S(=O)(=O)C(C)C)c2cn[nH]c2n1	58

Biological target: NEK9 (human) (UniProt Q8TD19)
Experiment: KINOMEscan competition binding
Conditions: compound 10.0 µM

Sequence of NEK9 (human) (Q8TD19 whole entry, looked up): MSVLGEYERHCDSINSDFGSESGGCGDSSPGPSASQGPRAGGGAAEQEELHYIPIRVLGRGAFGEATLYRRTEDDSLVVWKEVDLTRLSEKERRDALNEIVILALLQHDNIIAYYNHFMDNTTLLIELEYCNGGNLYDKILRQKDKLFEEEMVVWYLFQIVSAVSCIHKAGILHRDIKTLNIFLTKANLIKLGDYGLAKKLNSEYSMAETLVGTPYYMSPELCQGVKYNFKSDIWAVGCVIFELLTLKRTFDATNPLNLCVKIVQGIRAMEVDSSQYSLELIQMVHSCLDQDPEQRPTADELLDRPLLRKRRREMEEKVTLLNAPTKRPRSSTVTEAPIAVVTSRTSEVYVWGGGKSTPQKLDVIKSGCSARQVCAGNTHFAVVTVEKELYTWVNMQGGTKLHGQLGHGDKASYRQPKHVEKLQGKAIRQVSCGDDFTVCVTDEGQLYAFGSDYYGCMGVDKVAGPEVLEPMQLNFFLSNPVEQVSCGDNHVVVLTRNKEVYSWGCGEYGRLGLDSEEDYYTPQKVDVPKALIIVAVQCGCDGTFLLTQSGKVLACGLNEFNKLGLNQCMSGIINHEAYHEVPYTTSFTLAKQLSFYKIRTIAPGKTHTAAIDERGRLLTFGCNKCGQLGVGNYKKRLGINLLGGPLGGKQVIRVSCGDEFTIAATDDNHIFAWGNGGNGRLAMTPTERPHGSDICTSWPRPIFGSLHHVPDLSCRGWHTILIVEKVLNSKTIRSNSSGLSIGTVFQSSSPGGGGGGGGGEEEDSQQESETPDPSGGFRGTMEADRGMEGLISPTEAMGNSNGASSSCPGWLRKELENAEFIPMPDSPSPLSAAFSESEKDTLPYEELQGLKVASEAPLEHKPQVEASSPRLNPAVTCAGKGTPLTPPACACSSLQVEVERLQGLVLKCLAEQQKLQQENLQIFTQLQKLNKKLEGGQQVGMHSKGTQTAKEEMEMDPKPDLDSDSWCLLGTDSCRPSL

Compound	kinase still bound, per cent of control [%]
CCN1CCN(Cc2ccc(NC(=O)c3ccc(C)c(/C=C/c4cnc(Nc5cc(N6CCNCC6)nc(C)n5)cn4)c3)cc2C(F)(F)F)CC1	27
COc1cc(N2CCC(N3CCN(C)CC3)CC2)ccc1Nc1ncc(Cl)c(Nc2ccccc2S(=O)(=O)C(C)C)n1	3.3
CCOc1cc(N2CCC(N3CCCCC3)CC2)ccc1Nc1nc(Nc2ccccc2S(=O)(=O)C(C)C)c2cn[nH]c2n1	100

Biological target: NTRK2 (human) (UniProt Q16620)
Experiment: KINOMEscan competition binding
Conditions: compound 10.0 µM

Compound	kinase still bound, per cent of control [%]
CCN1CCN(Cc2ccc(NC(=O)c3ccc(C)c(/C=C/c4cnc(Nc5cc(N6CCNCC6)nc(C)n5)cn4)c3)cc2C(F)(F)F)CC1	1
COc1cc(N2CCC(N3CCN(C)CC3)CC2)ccc1Nc1ncc(Cl)c(Nc2ccccc2S(=O)(=O)C(C)C)n1	8.4
CCOc1cc(N2CCC(N3CCCCC3)CC2)ccc1Nc1nc(Nc2ccccc2S(=O)(=O)C(C)C)c2cn[nH]c2n1	59

Biological target: PAK6 (human) (UniProt Q9NQU5)
Experiment: KINOMEscan competition binding
Conditions: compound 10.0 µM

Compound	kinase still bound, per cent of control [%]
CCN1CCN(Cc2ccc(NC(=O)c3ccc(C)c(/C=C/c4cnc(Nc5cc(N6CCNCC6)nc(C)n5)cn4)c3)cc2C(F)(F)F)CC1	91
COc1cc(N2CCC(N3CCN(C)CC3)CC2)ccc1Nc1ncc(Cl)c(Nc2ccccc2S(=O)(=O)C(C)C)n1	13
CCOc1cc(N2CCC(N3CCCCC3)CC2)ccc1Nc1nc(Nc2ccccc2S(=O)(=O)C(C)C)c2cn[nH]c2n1	100

Biological target: PIK3CG (human) (UniProt P48736)
Experiment: KINOMEscan competition binding
Conditions: compound 10.0 µM

Compound	kinase still bound, per cent of control [%]
CCN1CCN(Cc2ccc(NC(=O)c3ccc(C)c(/C=C/c4cnc(Nc5cc(N6CCNCC6)nc(C)n5)cn4)c3)cc2C(F)(F)F)CC1	100
COc1cc(N2CCC(N3CCN(C)CC3)CC2)ccc1Nc1ncc(Cl)c(Nc2ccccc2S(=O)(=O)C(C)C)n1	40
CCOc1cc(N2CCC(N3CCCCC3)CC2)ccc1Nc1nc(Nc2ccccc2S(=O)(=O)C(C)C)c2cn[nH]c2n1	100

Biological target: PIM3 (human) (UniProt Q86V86)
Experiment: KINOMEscan competition binding
Conditions: compound 10.0 µM

Compound	kinase still bound, per cent of control [%]
CCN1CCN(Cc2ccc(NC(=O)c3ccc(C)c(/C=C/c4cnc(Nc5cc(N6CCNCC6)nc(C)n5)cn4)c3)cc2C(F)(F)F)CC1	55
COc1cc(N2CCC(N3CCN(C)CC3)CC2)ccc1Nc1ncc(Cl)c(Nc2ccccc2S(=O)(=O)C(C)C)n1	40
CCOc1cc(N2CCC(N3CCCCC3)CC2)ccc1Nc1nc(Nc2ccccc2S(=O)(=O)C(C)C)c2cn[nH]c2n1	100

Biological target: PKMYT1 (human) (UniProt Q99640)
Experiment: KINOMEscan competition binding
Conditions: compound 10.0 µM

Sequence of PKMYT1 (human) (Q99640 whole entry, looked up): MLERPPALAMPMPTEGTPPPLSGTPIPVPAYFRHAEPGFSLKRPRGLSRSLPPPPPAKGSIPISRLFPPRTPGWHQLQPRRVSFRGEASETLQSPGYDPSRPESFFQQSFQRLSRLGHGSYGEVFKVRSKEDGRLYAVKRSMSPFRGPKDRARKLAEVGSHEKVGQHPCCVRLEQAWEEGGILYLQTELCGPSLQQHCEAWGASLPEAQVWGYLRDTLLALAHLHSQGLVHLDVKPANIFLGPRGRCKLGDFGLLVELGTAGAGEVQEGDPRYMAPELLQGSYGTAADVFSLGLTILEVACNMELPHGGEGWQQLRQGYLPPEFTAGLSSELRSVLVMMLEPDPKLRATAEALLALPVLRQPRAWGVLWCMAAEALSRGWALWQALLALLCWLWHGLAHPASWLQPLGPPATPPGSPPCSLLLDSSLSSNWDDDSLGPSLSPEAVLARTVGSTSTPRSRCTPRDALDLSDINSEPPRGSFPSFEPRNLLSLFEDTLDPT

Compound	kinase still bound, per cent of control [%]
CCN1CCN(Cc2ccc(NC(=O)c3ccc(C)c(/C=C/c4cnc(Nc5cc(N6CCNCC6)nc(C)n5)cn4)c3)cc2C(F)(F)F)CC1	100
COc1cc(N2CCC(N3CCN(C)CC3)CC2)ccc1Nc1ncc(Cl)c(Nc2ccccc2S(=O)(=O)C(C)C)n1	40
CCOc1cc(N2CCC(N3CCCCC3)CC2)ccc1Nc1nc(Nc2ccccc2S(=O)(=O)C(C)C)c2cn[nH]c2n1	69

Biological target: PLK1 (human) (UniProt P53350)
Experiment: KINOMEscan competition binding
Conditions: compound 10.0 µM

Compound	kinase still bound, per cent of control [%]
CCN1CCN(Cc2ccc(NC(=O)c3ccc(C)c(/C=C/c4cnc(Nc5cc(N6CCNCC6)nc(C)n5)cn4)c3)cc2C(F)(F)F)CC1	100
COc1cc(N2CCC(N3CCN(C)CC3)CC2)ccc1Nc1ncc(Cl)c(Nc2ccccc2S(=O)(=O)C(C)C)n1	0.1
CCOc1cc(N2CCC(N3CCCCC3)CC2)ccc1Nc1nc(Nc2ccccc2S(=O)(=O)C(C)C)c2cn[nH]c2n1	47

Biological target: PRKD1 (human) (UniProt Q15139)
Experiment: KINOMEscan competition binding
Conditions: compound 10.0 µM

Sequence of PRKD1 (human) (Q15139 whole entry, looked up): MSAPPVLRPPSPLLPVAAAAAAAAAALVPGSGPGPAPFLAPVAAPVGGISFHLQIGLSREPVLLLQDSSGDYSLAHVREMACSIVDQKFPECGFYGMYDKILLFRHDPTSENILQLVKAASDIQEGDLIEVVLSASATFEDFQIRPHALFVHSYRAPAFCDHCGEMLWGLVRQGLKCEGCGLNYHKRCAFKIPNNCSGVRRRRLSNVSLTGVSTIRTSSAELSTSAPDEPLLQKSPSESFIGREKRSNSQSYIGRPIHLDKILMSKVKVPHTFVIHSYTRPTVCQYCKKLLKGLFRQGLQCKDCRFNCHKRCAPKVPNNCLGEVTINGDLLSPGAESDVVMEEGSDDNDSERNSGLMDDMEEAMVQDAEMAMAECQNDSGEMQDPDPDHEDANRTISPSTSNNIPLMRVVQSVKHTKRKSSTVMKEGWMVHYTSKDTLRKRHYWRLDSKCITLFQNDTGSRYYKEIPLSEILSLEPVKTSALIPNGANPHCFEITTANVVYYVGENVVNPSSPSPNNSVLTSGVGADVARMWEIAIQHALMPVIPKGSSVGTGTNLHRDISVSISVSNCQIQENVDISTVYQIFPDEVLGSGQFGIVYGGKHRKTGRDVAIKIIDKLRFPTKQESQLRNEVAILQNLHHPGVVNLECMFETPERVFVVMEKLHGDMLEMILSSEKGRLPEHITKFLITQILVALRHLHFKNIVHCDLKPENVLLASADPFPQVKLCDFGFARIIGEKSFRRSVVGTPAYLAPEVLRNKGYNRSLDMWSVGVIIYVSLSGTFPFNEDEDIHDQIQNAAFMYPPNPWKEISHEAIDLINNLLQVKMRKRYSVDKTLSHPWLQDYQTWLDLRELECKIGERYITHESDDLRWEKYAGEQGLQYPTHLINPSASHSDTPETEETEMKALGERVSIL

Compound	kinase still bound, per cent of control [%]
CCN1CCN(Cc2ccc(NC(=O)c3ccc(C)c(/C=C/c4cnc(Nc5cc(N6CCNCC6)nc(C)n5)cn4)c3)cc2C(F)(F)F)CC1	90
COc1cc(N2CCC(N3CCN(C)CC3)CC2)ccc1Nc1ncc(Cl)c(Nc2ccccc2S(=O)(=O)C(C)C)n1	1
CCOc1cc(N2CCC(N3CCCCC3)CC2)ccc1Nc1nc(Nc2ccccc2S(=O)(=O)C(C)C)c2cn[nH]c2n1	73

Biological target: PRKD3 (human) (UniProt O94806)
Experiment: KINOMEscan competition binding
Conditions: compound 10.0 µM

Sequence of PRKD3 (human) (O94806 whole entry, looked up): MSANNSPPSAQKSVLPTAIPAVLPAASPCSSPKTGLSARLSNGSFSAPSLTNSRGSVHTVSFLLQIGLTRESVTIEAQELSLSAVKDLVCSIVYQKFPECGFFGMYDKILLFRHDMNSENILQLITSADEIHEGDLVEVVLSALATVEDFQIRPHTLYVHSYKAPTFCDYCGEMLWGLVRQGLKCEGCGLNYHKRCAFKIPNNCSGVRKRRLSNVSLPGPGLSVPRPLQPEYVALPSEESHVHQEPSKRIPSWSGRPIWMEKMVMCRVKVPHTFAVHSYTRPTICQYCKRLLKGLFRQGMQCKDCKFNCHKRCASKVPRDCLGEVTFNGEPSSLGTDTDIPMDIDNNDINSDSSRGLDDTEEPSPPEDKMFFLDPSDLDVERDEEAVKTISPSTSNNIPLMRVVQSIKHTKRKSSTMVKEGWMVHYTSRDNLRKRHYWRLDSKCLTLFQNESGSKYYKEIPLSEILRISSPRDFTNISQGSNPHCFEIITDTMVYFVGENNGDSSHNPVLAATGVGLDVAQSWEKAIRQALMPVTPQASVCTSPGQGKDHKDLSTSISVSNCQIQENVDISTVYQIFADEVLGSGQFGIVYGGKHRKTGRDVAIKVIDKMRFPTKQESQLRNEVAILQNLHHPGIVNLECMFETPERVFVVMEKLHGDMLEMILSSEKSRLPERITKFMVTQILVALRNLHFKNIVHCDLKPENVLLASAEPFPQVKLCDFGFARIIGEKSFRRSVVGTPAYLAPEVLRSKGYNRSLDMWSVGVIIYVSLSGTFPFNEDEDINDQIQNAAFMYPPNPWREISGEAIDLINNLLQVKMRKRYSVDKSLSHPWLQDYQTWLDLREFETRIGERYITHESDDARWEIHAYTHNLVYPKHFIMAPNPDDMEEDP

Compound	kinase still bound, per cent of control [%]
CCN1CCN(Cc2ccc(NC(=O)c3ccc(C)c(/C=C/c4cnc(Nc5cc(N6CCNCC6)nc(C)n5)cn4)c3)cc2C(F)(F)F)CC1	71
COc1cc(N2CCC(N3CCN(C)CC3)CC2)ccc1Nc1ncc(Cl)c(Nc2ccccc2S(=O)(=O)C(C)C)n1	0
CCOc1cc(N2CCC(N3CCCCC3)CC2)ccc1Nc1nc(Nc2ccccc2S(=O)(=O)C(C)C)c2cn[nH]c2n1	36

Biological target: PRKX (human) (UniProt P51817)
Experiment: KINOMEscan competition binding
Conditions: compound 10.0 µM

Compound	kinase still bound, per cent of control [%]
CCN1CCN(Cc2ccc(NC(=O)c3ccc(C)c(/C=C/c4cnc(Nc5cc(N6CCNCC6)nc(C)n5)cn4)c3)cc2C(F)(F)F)CC1	100
COc1cc(N2CCC(N3CCN(C)CC3)CC2)ccc1Nc1ncc(Cl)c(Nc2ccccc2S(=O)(=O)C(C)C)n1	28
CCOc1cc(N2CCC(N3CCCCC3)CC2)ccc1Nc1nc(Nc2ccccc2S(=O)(=O)C(C)C)c2cn[nH]c2n1	100

Test system: RET (human), P07949 [V804L]
Experiment: KINOMEscan competition binding
Conditions: compound 10.0 µM

Compound	kinase still bound, per cent of control [%]
CCN1CCN(Cc2ccc(NC(=O)c3ccc(C)c(/C=C/c4cnc(Nc5cc(N6CCNCC6)nc(C)n5)cn4)c3)cc2C(F)(F)F)CC1	1.2
CCOc1cc(N2CCC(N3CCCCC3)CC2)ccc1Nc1nc(Nc2ccccc2S(=O)(=O)C(C)C)c2cn[nH]c2n1	82
CCN1CCN(Cc2ccc(NC(=O)c3ccc(C)c(Oc4ccnc5[nH]ccc45)c3)cc2C(F)(F)F)CC1	0.8

Biological target: RPS6KA4 KD1 (human) (UniProt O75676)
Experiment: KINOMEscan competition binding
Conditions: compound 10.0 µM

Sequence of RPS6KA4 KD1 (human) (O75676 whole entry, looked up): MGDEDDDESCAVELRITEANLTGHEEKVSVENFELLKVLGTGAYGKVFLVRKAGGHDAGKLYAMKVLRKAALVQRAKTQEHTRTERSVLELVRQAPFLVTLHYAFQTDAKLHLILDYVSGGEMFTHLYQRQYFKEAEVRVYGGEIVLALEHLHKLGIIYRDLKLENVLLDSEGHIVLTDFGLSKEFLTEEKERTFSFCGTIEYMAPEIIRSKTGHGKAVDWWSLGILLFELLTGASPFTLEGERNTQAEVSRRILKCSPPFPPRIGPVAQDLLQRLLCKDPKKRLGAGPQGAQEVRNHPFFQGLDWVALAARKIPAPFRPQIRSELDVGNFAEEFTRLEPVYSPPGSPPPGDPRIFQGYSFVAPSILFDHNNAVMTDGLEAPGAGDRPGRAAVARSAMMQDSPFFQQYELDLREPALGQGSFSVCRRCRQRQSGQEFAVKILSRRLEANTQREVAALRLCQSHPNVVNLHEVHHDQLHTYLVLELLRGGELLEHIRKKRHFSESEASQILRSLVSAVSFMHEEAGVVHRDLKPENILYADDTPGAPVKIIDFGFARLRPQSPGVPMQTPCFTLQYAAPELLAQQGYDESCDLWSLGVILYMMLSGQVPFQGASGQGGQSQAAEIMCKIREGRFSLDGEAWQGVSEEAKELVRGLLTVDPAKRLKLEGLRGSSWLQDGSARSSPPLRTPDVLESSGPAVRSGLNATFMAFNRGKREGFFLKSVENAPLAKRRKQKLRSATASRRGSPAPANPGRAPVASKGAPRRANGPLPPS

Compound	kinase still bound, per cent of control [%]
CCN1CCN(Cc2ccc(NC(=O)c3ccc(C)c(/C=C/c4cnc(Nc5cc(N6CCNCC6)nc(C)n5)cn4)c3)cc2C(F)(F)F)CC1	100
COc1cc(N2CCC(N3CCN(C)CC3)CC2)ccc1Nc1ncc(Cl)c(Nc2ccccc2S(=O)(=O)C(C)C)n1	4.4
CCOc1cc(N2CCC(N3CCCCC3)CC2)ccc1Nc1nc(Nc2ccccc2S(=O)(=O)C(C)C)c2cn[nH]c2n1	100

Biological target: RPS6KA5 KD2 (human) (UniProt O75582)
Experiment: KINOMEscan competition binding
Conditions: compound 10.0 µM

Sequence of RPS6KA5 KD2 (human) (O75582 whole entry, looked up): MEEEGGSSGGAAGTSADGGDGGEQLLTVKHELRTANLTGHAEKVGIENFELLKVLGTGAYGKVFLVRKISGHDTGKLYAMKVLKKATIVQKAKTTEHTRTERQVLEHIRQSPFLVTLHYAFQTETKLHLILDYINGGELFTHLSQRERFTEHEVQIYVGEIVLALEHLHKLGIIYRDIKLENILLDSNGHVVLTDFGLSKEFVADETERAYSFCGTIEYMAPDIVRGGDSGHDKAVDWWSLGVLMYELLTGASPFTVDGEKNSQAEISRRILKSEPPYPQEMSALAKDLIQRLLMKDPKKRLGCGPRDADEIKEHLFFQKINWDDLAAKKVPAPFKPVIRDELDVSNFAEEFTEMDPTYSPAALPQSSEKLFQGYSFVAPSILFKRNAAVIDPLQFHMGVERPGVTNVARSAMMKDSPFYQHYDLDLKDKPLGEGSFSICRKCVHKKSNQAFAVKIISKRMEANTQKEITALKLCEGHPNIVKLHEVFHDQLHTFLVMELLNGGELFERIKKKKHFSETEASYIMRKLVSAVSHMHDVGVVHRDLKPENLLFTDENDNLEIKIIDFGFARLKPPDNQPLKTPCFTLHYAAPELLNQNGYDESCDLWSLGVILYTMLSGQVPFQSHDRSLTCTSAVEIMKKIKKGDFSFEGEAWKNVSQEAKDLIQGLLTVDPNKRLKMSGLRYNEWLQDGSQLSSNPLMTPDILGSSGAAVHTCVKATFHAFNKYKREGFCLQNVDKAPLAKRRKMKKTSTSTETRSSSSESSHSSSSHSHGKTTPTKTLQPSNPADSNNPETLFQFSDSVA

Compound	kinase still bound, per cent of control [%]
CCN1CCN(Cc2ccc(NC(=O)c3ccc(C)c(/C=C/c4cnc(Nc5cc(N6CCNCC6)nc(C)n5)cn4)c3)cc2C(F)(F)F)CC1	73
COc1cc(N2CCC(N3CCN(C)CC3)CC2)ccc1Nc1ncc(Cl)c(Nc2ccccc2S(=O)(=O)C(C)C)n1	40
CCOc1cc(N2CCC(N3CCCCC3)CC2)ccc1Nc1nc(Nc2ccccc2S(=O)(=O)C(C)C)c2cn[nH]c2n1	100

Biological target: STK4 (human) (UniProt Q13043)
Experiment: KINOMEscan competition binding
Conditions: compound 10.0 µM

Compound	kinase still bound, per cent of control [%]
CCN1CCN(Cc2ccc(NC(=O)c3ccc(C)c(/C=C/c4cnc(Nc5cc(N6CCNCC6)nc(C)n5)cn4)c3)cc2C(F)(F)F)CC1	22
COc1cc(N2CCC(N3CCN(C)CC3)CC2)ccc1Nc1ncc(Cl)c(Nc2ccccc2S(=O)(=O)C(C)C)n1	4.1
CCOc1cc(N2CCC(N3CCCCC3)CC2)ccc1Nc1nc(Nc2ccccc2S(=O)(=O)C(C)C)c2cn[nH]c2n1	100

Biological target: TGFBR1 (human) (UniProt P36897)
Experiment: KINOMEscan competition binding
Conditions: compound 10.0 µM

Compound	kinase still bound, per cent of control [%]
CCN1CCN(Cc2ccc(NC(=O)c3ccc(C)c(/C=C/c4cnc(Nc5cc(N6CCNCC6)nc(C)n5)cn4)c3)cc2C(F)(F)F)CC1	99
COc1cc(N2CCC(N3CCN(C)CC3)CC2)ccc1Nc1ncc(Cl)c(Nc2ccccc2S(=O)(=O)C(C)C)n1	0.2
CCOc1cc(N2CCC(N3CCCCC3)CC2)ccc1Nc1nc(Nc2ccccc2S(=O)(=O)C(C)C)c2cn[nH]c2n1	95

Biological target: TLK1 (human) (UniProt Q9UKI8)
Experiment: KINOMEscan competition binding
Conditions: compound 10.0 µM

Compound	kinase still bound, per cent of control [%]
CCN1CCN(Cc2ccc(NC(=O)c3ccc(C)c(/C=C/c4cnc(Nc5cc(N6CCNCC6)nc(C)n5)cn4)c3)cc2C(F)(F)F)CC1	100
COc1cc(N2CCC(N3CCN(C)CC3)CC2)ccc1Nc1ncc(Cl)c(Nc2ccccc2S(=O)(=O)C(C)C)n1	40
CCOc1cc(N2CCC(N3CCCCC3)CC2)ccc1Nc1nc(Nc2ccccc2S(=O)(=O)C(C)C)c2cn[nH]c2n1	75

Biological target: TNIK (human) (UniProt Q9UKE5)
Experiment: KINOMEscan competition binding
Conditions: compound 10.0 µM

Compound	kinase still bound, per cent of control [%]
CCN1CCN(Cc2ccc(NC(=O)c3ccc(C)c(/C=C/c4cnc(Nc5cc(N6CCNCC6)nc(C)n5)cn4)c3)cc2C(F)(F)F)CC1	1.9
COc1cc(N2CCC(N3CCN(C)CC3)CC2)ccc1Nc1ncc(Cl)c(Nc2ccccc2S(=O)(=O)C(C)C)n1	12
CCOc1cc(N2CCC(N3CCCCC3)CC2)ccc1Nc1nc(Nc2ccccc2S(=O)(=O)C(C)C)c2cn[nH]c2n1	87
CCN1CCN(Cc2ccc(NC(=O)c3ccc(C)c(Oc4ccnc5[nH]ccc45)c3)cc2C(F)(F)F)CC1	8.2

Biological target: TNK2 (human) (UniProt Q07912)
Experiment: KINOMEscan competition binding
Conditions: compound 10.0 µM

Compound	kinase still bound, per cent of control [%]
CCN1CCN(Cc2ccc(NC(=O)c3ccc(C)c(/C=C/c4cnc(Nc5cc(N6CCNCC6)nc(C)n5)cn4)c3)cc2C(F)(F)F)CC1	32
COc1cc(N2CCC(N3CCN(C)CC3)CC2)ccc1Nc1ncc(Cl)c(Nc2ccccc2S(=O)(=O)C(C)C)n1	0
CCOc1cc(N2CCC(N3CCCCC3)CC2)ccc1Nc1nc(Nc2ccccc2S(=O)(=O)C(C)C)c2cn[nH]c2n1	3.4

Biological target: ULK1 (human) (UniProt O75385)
Experiment: KINOMEscan competition binding
Conditions: compound 10.0 µM

Compound	kinase still bound, per cent of control [%]
CCN1CCN(Cc2ccc(NC(=O)c3ccc(C)c(/C=C/c4cnc(Nc5cc(N6CCNCC6)nc(C)n5)cn4)c3)cc2C(F)(F)F)CC1	83
COc1cc(N2CCC(N3CCN(C)CC3)CC2)ccc1Nc1ncc(Cl)c(Nc2ccccc2S(=O)(=O)C(C)C)n1	0.1
CCOc1cc(N2CCC(N3CCCCC3)CC2)ccc1Nc1nc(Nc2ccccc2S(=O)(=O)C(C)C)c2cn[nH]c2n1	1.8

Biological target: WEE2 (human) (UniProt P0C1S8)
Experiment: KINOMEscan competition binding
Conditions: compound 10.0 µM

Compound	kinase still bound, per cent of control [%]
CCN1CCN(Cc2ccc(NC(=O)c3ccc(C)c(/C=C/c4cnc(Nc5cc(N6CCNCC6)nc(C)n5)cn4)c3)cc2C(F)(F)F)CC1	83
COc1cc(N2CCC(N3CCN(C)CC3)CC2)ccc1Nc1ncc(Cl)c(Nc2ccccc2S(=O)(=O)C(C)C)n1	40
CCOc1cc(N2CCC(N3CCCCC3)CC2)ccc1Nc1nc(Nc2ccccc2S(=O)(=O)C(C)C)c2cn[nH]c2n1	100

Biological target: YES1 (human) (UniProt P07947)
Experiment: KINOMEscan competition binding
Conditions: compound 10.0 µM

Compound	kinase still bound, per cent of control [%]
CCN1CCN(Cc2ccc(NC(=O)c3ccc(C)c(/C=C/c4cnc(Nc5cc(N6CCNCC6)nc(C)n5)cn4)c3)cc2C(F)(F)F)CC1	1.4
COc1cc(N2CCC(N3CCN(C)CC3)CC2)ccc1Nc1ncc(Cl)c(Nc2ccccc2S(=O)(=O)C(C)C)n1	0.1
CCOc1cc(N2CCC(N3CCCCC3)CC2)ccc1Nc1nc(Nc2ccccc2S(=O)(=O)C(C)C)c2cn[nH]c2n1	84
CCN1CCN(Cc2ccc(NC(=O)c3ccc(C)c(Oc4ccnc5[nH]ccc45)c3)cc2C(F)(F)F)CC1	1.6
